Experimental findings from ChEMBL document CHEMBL1158401, “Development of CoMFA and CoMSIA models of affinity and selectivity for indole ligands of cannabinoid CB1 and CB2 receptors” (Eur J Med Chem, 2009) are described below.

The structures appear in SMILES notation.

A short description of assay [1]: Selectivity ratio of pKi for CB1 receptor in rat brain to pKi for human cloned CB2 receptor. The assay is classed as tissue-based.
The nature of assay [2]: Selectivity ratio of pKi for human cloned CB2 receptor to pKi for CB1 receptor in rat brain. It is filed as tissue-based.
Another assay concerns the target Cannabinoid receptor 1 (Rattus norvegicus, UniProt P20272). As to the kind of experiment: Displacement of [3H]CP-55940 from CB1 receptor in rat brain by filtration assay. The assay is classed as tissue-based. In general terms: Displacement assays read how much labelled ligand stays bound in the presence of the test substance.
For a further assay, the target named is Cannabinoid receptor 2 (Homo sapiens, UniProt P34972). As to the kind of experiment: Displacement of [3H]CP-55940 from human cloned CB2 receptor by filtration assay.
Chain of Cannabinoid receptor 2 (P34972 whole entry): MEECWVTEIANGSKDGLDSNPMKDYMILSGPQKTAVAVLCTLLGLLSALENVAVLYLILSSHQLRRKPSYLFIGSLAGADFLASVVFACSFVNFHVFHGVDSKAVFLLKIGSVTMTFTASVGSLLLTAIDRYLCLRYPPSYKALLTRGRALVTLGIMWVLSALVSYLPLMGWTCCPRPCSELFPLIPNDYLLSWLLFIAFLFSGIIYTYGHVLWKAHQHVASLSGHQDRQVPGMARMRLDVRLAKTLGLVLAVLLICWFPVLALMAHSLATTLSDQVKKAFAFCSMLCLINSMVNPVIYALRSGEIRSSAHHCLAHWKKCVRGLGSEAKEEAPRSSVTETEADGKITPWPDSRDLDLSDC

Chain of Cannabinoid receptor 1 (P20272 whole entry): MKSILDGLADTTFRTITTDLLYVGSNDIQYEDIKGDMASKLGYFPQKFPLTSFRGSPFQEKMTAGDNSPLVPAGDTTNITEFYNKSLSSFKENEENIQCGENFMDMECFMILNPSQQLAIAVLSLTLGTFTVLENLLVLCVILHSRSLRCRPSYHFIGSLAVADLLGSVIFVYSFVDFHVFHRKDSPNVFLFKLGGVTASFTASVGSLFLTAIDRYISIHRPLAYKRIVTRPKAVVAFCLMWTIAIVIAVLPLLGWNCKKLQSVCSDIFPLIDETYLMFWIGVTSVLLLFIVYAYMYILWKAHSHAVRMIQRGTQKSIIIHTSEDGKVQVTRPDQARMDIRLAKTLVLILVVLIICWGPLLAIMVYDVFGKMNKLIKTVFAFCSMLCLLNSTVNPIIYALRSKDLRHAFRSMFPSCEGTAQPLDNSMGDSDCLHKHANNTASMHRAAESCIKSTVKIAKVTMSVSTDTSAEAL

As to `CCCCCn1cc(C(=O)c2ccc(OCC)c3ccccc23)c2ccccc21`, the Ratio pKi in assay [1] was 1.04; in assay [2], 0.957.

With `CCCCCn1cc(C(=O)c2cccc3ccccc23)c2ccccc21`, the figures for the Ki at Cannabinoid receptor 1 and on Cannabinoid receptor 2 were 9.02 nM and 2.9 nM, respectively. Also, the Ratio pKi was determined as 0.942 in assay [1] and 1.06 in assay [2].

`CCCCCn1c(C)c(C(=O)c2ccc(OC)c3ccccc23)c2ccccc21`: the Ki (usually the equilibrium dissociation constant of an inhibitor or competing ligand from its target) at Cannabinoid receptor 1 was 4.51 nM; at Cannabinoid receptor 2, 1.9 nM. Also, the results for the Ratio pKi in assay [1] and in assay [2] were 0.957 and 1.04, respectively.

For `CCCCCn1c(C)c(C(=O)Cc2ccccc2C)c2ccccc21`, the results for the Ratio pKi in assay [1] and in assay [2] were 0.989 and 1.01, respectively.

Consider `CCCn1cc(C(=O)c2c(OC)ccc3ccccc23)c2ccccc21`, for which the Ratio pKi in assay [1] came to 0.764; in assay [2], 1.31.

Regarding `CCCCCn1c(C)c(C(=O)c2cccc3cc(OC)ccc23)c2ccccc21`, the Ratio pKi in assay [1] worked out at 0.83; in assay [2] it was 1.21.

Take `CCCn1cc(C(=O)c2ccc(OCC)c3ccccc23)c2ccccc21`: the results for the Ratio pKi in assay [1] and in assay [2] were 0.934 and 1.07, respectively.

On to `CCCn1c(C)c(C(=O)c2ccc(CC)c3ccccc23)c2ccccc21`, for which the Ratio pKi in assay [1] was found to be 0.903; in assay [2], 1.11.

Consider `CCCCc1ccc(C(=O)c2cn(CCC)c3ccccc23)c2ccccc12`, for which the Ratio pKi stood at 0.888 in assay [1] and 1.13 in assay [2].

For the compound `CCCCCn1cc(C(=O)c2ccc(CC)c3ccccc23)c2ccccc21`, the values for the Ratio pKi in assay [1] and in assay [2] were 1.02 and 0.981, respectively.

Regarding `CCCCCn1cc(C(=O)Cc2ccccc2Br)c2ccccc21`, the Ratio pKi in assay [1] came to 1.05; in assay [2], 0.953.

With `CCCCCn1cc(C(=O)Cc2cccc(Cl)c2)c2ccccc21`, the values for the Ratio pKi in assay [1] and in assay [2] were 1.06 and 0.939, respectively.

Consider `CCCCCn1cc(C(=O)c2cccc3ccc(OC)cc23)c2ccccc21`, for which the Ratio pKi in assay [1] came to 1; in assay [2], 0.997.

As to `CCCCCn1cc(C(=O)Cc2cccc(F)c2)c2ccccc21`, the Ratio pKi was 1.01 in assay [1] and 0.985 in assay [2].

For `CCCCCn1c(C)c(C(=O)Cc2ccc(C)cc2)c2ccccc21`, the Ratio pKi in assay [1] was found to be 1.04; in assay [2], 0.957.

On to `CCCCCn1cc(C(=O)Cc2ccccc2F)c2ccccc21`, for which the Ratio pKi worked out at 1.03 in assay [1] and 0.969 in assay [2].

For the compound `CCCCCn1cc(C(=O)c2cccc3ccc(CC)cc23)c2ccccc21`, the Ratio pKi was 0.959 in assay [1] and 1.04 in assay [2].

Consider `CCCn1cc(C(=O)c2ccc(C)c3ccccc23)c2ccccc21`, for which the values for the Ratio pKi in assay [1] and in assay [2] were 0.728 and 1.37, respectively.

Turning to `CCCc1ccc(C(=O)c2cn(CCC)c3ccccc23)c2ccccc12`, the Ratio pKi in assay [1] was 0.946; in assay [2] it was 1.06.

Regarding `CCCCCn1c(C)c(C(=O)c2ccc(CCCC)c3ccccc23)c2ccccc21`, the Ratio pKi was 0.901 in assay [1] and 1.11 in assay [2].

As for `CCCCCn1c(C)c(C(=O)c2cccc3ccc(OC)cc23)c2ccccc21`, the Ratio pKi amounted to 0.92 in assay [1] and 1.09 in assay [2].

As for `CCCCCn1c(C)c(C(=O)Cc2ccc(Cl)cc2)c2ccccc21`, the Ratio pKi turned out to be 1.07 in assay [1] and 0.936 in assay [2].

On to `CCCCCn1c(C)c(C(=O)Cc2ccccc2OC)c2ccccc21`, for which the values for the Ratio pKi in assay [1] and in assay [2] were 1.07 and 0.932, respectively.

For `CCCCCn1cc(C(=O)c2ccc(CCC)c3ccccc23)c2ccccc21`, the Ratio pKi in assay [1] is 1.02; in assay [2] it was 0.975.

On to `CCCCCn1c(C)c(C(=O)c2cccc3ccc(CC)cc23)c2ccccc21`, for which the Ratio pKi in assay [1] was determined as 0.915; in assay [2], 1.09.

Regarding `CCCCCn1cc(C(=O)Cc2ccc(C)cc2)c2ccccc21`, the figures for the Ratio pKi in assay [1] and in assay [2] were 1.08 and 0.925, respectively.

On to `CCCCCn1c(C)c(C(=O)Cc2cccc(F)c2)c2ccccc21`, for which the values for the Ratio pKi in assay [1] and in assay [2] were 0.945 and 1.06, respectively.

As for `CCCn1c(C)c(C(=O)c2cccc3ccc(CC)cc23)c2ccccc21`, the Ratio pKi was 0.887 in assay [1] and 1.13 in assay [2].

Regarding `CCCCCn1c(C)c(C(=O)Cc2ccccc2Cl)c2ccccc21`, the Ratio pKi was found to be 1.04 in assay [1] and 0.963 in assay [2].

For the compound `CCCn1cc(C(=O)c2cccc3ccc(OC)cc23)c2ccccc21`, the Ratio pKi in assay [1] worked out at 0.936; in assay [2], 1.07.

With `CCCn1c(C)c(C(=O)c2ccc(OCC)c3ccccc23)c2ccccc21`, the Ratio pKi in assay [1] was determined as 0.919; in assay [2], 1.09.

Regarding `CCCCCn1cc(C(=O)Cc2ccccc2C)c2ccccc21`, the Ratio pKi amounted to 1.1 in assay [1] and 0.906 in assay [2].

`CCCn1cc(C(=O)c2ccc(OC)c3ccccc23)c2ccccc21`: the Ki was 63.1 nM at Cannabinoid receptor 1 and 32 nM at Cannabinoid receptor 2. In addition, the Ratio pKi in assay [1] amounted to 0.961; in assay [2] it was 1.04.

As for `CCCCCn1cc(C(=O)Cc2ccccc2Cl)c2ccccc21`, the Ratio pKi in assay [1] amounted to 0.993; in assay [2] it was 1.01.

`CCCCCn1cc(C(=O)Cc2ccc(F)cc2)c2ccccc21`: the Ratio pKi in assay [1] stood at 0.99; in assay [2], 1.01.

With `CCCCCn1c(C)c(C(=O)Cc2ccccc2)c2ccccc21`, the figures for the Ratio pKi in assay [1] and in assay [2] were 1.02 and 0.976, respectively.

Take `CCCn1c(C)c(C(=O)c2cccc3ccc(OC)cc23)c2ccccc21`: the Ratio pKi worked out at 0.913 in assay [1] and 1.09 in assay [2].

In the case of `CCCCCn1cc(C(=O)Cc2ccccc2)c2ccccc21`, the Ratio pKi in assay [1] was determined as 1.04; in assay [2] it was 0.964.

On to `CCCn1cc(C(=O)c2cccc3cc(OC)ccc23)c2ccccc21`, for which the Ratio pKi in assay [1] turned out to be 0.82; in assay [2], 1.22.

Turning to `CCCCCn1c(C)c(C(=O)Cc2ccccc2F)c2ccccc21`, the Ratio pKi in assay [1] was determined as 1.04; in assay [2] it was 0.96.

In the case of `CCCCCn1c(C)c(C(=O)c2ccc(CC)c3ccccc23)c2ccccc21`, the Ratio pKi in assay [1] was 0.941; in assay [2], 1.06.

Turning to `CCCCCn1cc(C(=O)c2ccc(CCCC)c3ccccc23)c2ccccc21`, the values for the Ratio pKi in assay [1] and in assay [2] were 0.964 and 1.04, respectively.

In the case of `CCCn1cc(C(=O)c2ccc(CC)c3ccccc23)c2ccccc21`, the values for the Ratio pKi in assay [1] and in assay [2] were 0.935 and 1.07, respectively.

As for `CCCCCn1c(C)c(C(=O)Cc2ccccc2Br)c2ccccc21`, the Ratio pKi was 1.04 in assay [1] and 0.963 in assay [2].

Take `CCCCCn1cc(C(=O)Cc2cccc(OC)c2)c2ccccc21`: the Ratio pKi in assay [1] was determined as 1.1; in assay [2] it was 0.907.

On to `CCCCCn1c(C)c(C(=O)c2ccc(CCC)c3ccccc23)c2ccccc21`, for which the values for the Ratio pKi in assay [1] and in assay [2] were 0.965 and 1.04, respectively.

With `CCCCCn1cc(C(=O)Cc2ccc(OC)cc2)c2ccccc21`, the Ratio pKi in assay [1] was 0.94; in assay [2] it was 1.06.

In the case of `CCCCCn1cc(C(=O)c2c(OC)ccc3ccccc23)c2ccccc21`, the values for the Ratio pKi in assay [1] and in assay [2] were 0.788 and 1.27, respectively.

On to `CCCn1c(C)c(C(=O)c2ccc(OC)c3ccccc23)c2ccccc21`, for which the inhibitory constant (Ki) at Cannabinoid receptor 1 is 476 nM; at Cannabinoid receptor 2, 97.1 nM. Also, the Ratio pKi in assay [1] came out at 0.901; in assay [2] it was 1.11.

`CCCCCn1cc(C(=O)c2cccc3cc(OC)ccc23)c2ccccc21`: the Ratio pKi in assay [1] was found to be 0.843; in assay [2] it was 1.19.

Take `CCCCCn1cc(C(=O)Cc2ccc(Br)cc2)c2ccccc21`: in assay [1], the Ratio pKi is 0.969.

Turning to `CCCCCn1c(C)c(C(=O)c2cccc3ccc(C)cc23)c2ccccc21`, the figures for the Ki at Cannabinoid receptor 1 and at Cannabinoid receptor 2 were 10.7 nM and 0.49 nM, respectively. For the same compound, the Ratio pKi came out at 0.856 in assay [1] and 1.17 in assay [2].

Regarding `CCCn1cc(C(=O)c2cccc3ccc(C)cc23)c2ccccc21`, the Ratio pKi in assay [1] turned out to be 0.956; in assay [2], 1.04.

`CCCCCn1c(C)c(C(=O)c2ccc(C)c3ccccc23)c2ccccc21`: the affinity on Cannabinoid receptor 1 corresponds to a Ki of 5 nM. Besides, the Ratio pKi in assay [1] came out at 0.909; in assay [2], 1.1.

Take `CCCCCn1cc(C(=O)Cc2ccc(Cl)cc2)c2ccccc21`: the results for the Ratio pKi in assay [1] and in assay [2] were 1.02 and 0.983, respectively.

Turning to `CCCCc1ccc(C(=O)c2c(C)n(CCC)c3ccccc23)c2ccccc12`, the results for the Ratio pKi in assay [1] and in assay [2] were 0.935 and 1.07, respectively.

With `CCCc1ccc(C(=O)c2c(C)n(CCC)c3ccccc23)c2ccccc12`, the Ratio pKi is 0.919 in assay [1] and 1.09 in assay [2].

For `CCCCCn1cc(C(=O)c2ccc(OC)c3ccccc23)c2ccccc21`, the Ki was 1.2 nM on Cannabinoid receptor 1 and 12.4 nM at Cannabinoid receptor 2. Besides, the Ratio pKi amounted to 1.13 in assay [1] and 0.886 in assay [2].

As for `CCCCCn1c(C)c(C(=O)Cc2cccc(Cl)c2)c2ccccc21`, the Ratio pKi amounted to 1.01 in assay [1] and 0.989 in assay [2].

Take `CCCCCn1c(C)c(C(=O)c2c(OC)ccc3ccccc23)c2ccccc21`: the Ratio pKi in assay [1] is 0.792; in assay [2] it was 1.26.

As to `CCCn1cc(C(=O)c2cccc3ccc(CC)cc23)c2ccccc21`, the results for the Ratio pKi in assay [1] and in assay [2] were 0.936 and 1.07, respectively.

Regarding `CCCCCn1c(C)c(C(=O)Cc2ccc(OC)cc2)c2ccccc21`, the Ratio pKi in assay [1] turned out to be 0.933; in assay [2], 1.07.

On to `CCCCCn1c(C)c(C(=O)Cc2cccc(OC)c2)c2ccccc21`, for which the Ratio pKi in assay [1] stood at 1.02; in assay [2], 0.981.

Consider `CCCCCn1c(C)c(C(=O)c2ccc(OCC)c3ccccc23)c2ccccc21`, for which the results for the Ratio pKi in assay [1] and in assay [2] were 0.991 and 1.01, respectively.

Regarding `CCCCCn1cc(C(=O)Cc2ccccc2OC)c2ccccc21`, the Ratio pKi amounted to 1.06 in assay [1] and 0.94 in assay [2].

As to `CCCn1c(C)c(C(=O)c2ccc(C)c3ccccc23)c2ccccc21`, the figures for the Ratio pKi in assay [1] and in assay [2] were 0.88 and 1.14, respectively.

For `CCCCCn1cc(C(=O)c2ccc(C)c3ccccc23)c2ccccc21`, at Cannabinoid receptor 1, affinity was put at a Ki of 0.69 nM. In addition, the Ratio pKi in assay [1] stood at 1.03; in assay [2] it was 0.973.
